Measured values reported in patent US20060045856A1, “Composition containing a dihydroxyacetone precursor” (priority 2004, published 2006).

How the values were obtained:
[1] = Maillard browning test, tanning test 2 (aqueous test substance reacted with lysine, with or without lipase); details: room temperature; for Maillard browning colour after reacting with lysine: 0.1M aqueous solution or suspension + 1M Lysine aqueous solution; for Maillard browning colour after reacting with lysine, + 1% lipase: aqueous
Description: (§1) The ability of compounds according to formula I to induce an artificial tanning on the skin can roughly be estimated using a simple Maillard browning test. This visual test is based on the principle that the reaction of skin with DHA to produce an artificial tan proceeds through a complex set of reactions (Maillard reaction) with free amino acids of skin proteins, particularly with arguinine, lysine and histidine.
(§2) The tanning ability of 2,5-dipalmitoyloxymethyl-[1,4]dioxane-2,5-diol (A) is evaluated by means of the Maillard browning effect after reacting with lysine in different solvents (water and the cosmetic oil miglyol) and compared with those of reference compounds: DHA and monomeric DHA-palmitic acid monoester (B) under the same conditions. Besides that, the tanning effect of 2,5-dipalmitoyloxymethyl-[1,4]dioxane-2,5-diol in the presence of lipases (enzymes used by the body to hydrolyse fats) is also studied.

[2] = Maillard browning test, tanning test 1 (test substance in miglyol reacted with lysine); details: for Maillard browning colour after reacting with lysine: Tanning test 1, 0.1M in miglyol + 1M Lysine aqueous solution, room temperature
Description: as §1, §2

[3] = DHA monomer/dimer content in aqueous solution at elevated temperature; format: physicochemical; details: DHA solutions at 30-50° C.
Description: It is assumed that the improved tanning effect at elevated temperatures in the case of 1,3-dihydroxyacetone is connected with the following mechanism. As a raw material, DHA is in the form of a powder and consists of dimers. Dissolved in water, some of the dimers convert to the active monomeric form, which brings about the tanning reaction. At an elevated water temperature, the amount of monomers increases. […] At the same time, the elevated temperature increases the reaction rate of the tanning reaction. […] It is therefore preferred according to the invention when the solution of the self-tanning substance is heated for about 15 min, but at least about 10 min, before the solution is applied to the human skin.

SMILES | Maillard browning colour after reacting with lysine ([1]; 5 h) | Maillard browning colour after reacting with lysine ([1]; 1 day) | Maillard browning colour after reacting with lysine, + 1% lipase ([1]; 1 h) | Maillard browning colour after reacting with lysine, + 1% lipase ([1]; 1 day) | Maillard browning colour after reacting with lysine ([2]; 1 h) | Maillard browning colour after reacting with lysine ([2]; 5 h) | Maillard browning colour after reacting with lysine ([2]; 1 day) | Maillard browning colour after reacting with lysine ([2]; 8 days) | More active DHA monomers present than in DHA solutions at 20° C. [3] | Maillard browning colour after reacting with lysine ([1]; 1 h) | Maillard browning colour after reacting with lysine ([1]; 2 days) | Ability to undergo Maillard browning reactions ([2]; overall conclusion from tanning tests 1 and 2) | melting point
CCCCCCCCCCCCCCCC(=O)OCC(=O)CO [B, monomeric DHA-palmitic acid monoester] | Yellow | Brown | Yellow | Brown | Light yellow | Yellow | Brown | Dark brown | – | – | – | – | –
O=C(CO)CO [DHA, 1,3-dihydroxyacetone] | – | – | – | – | – | Light yellow | Brown | Dark brown | up to 30% | Brown | – | – | –
CCCCCCCCCCCCCCCC(=O)OCC1(O)COC(O)(COC(=O)CCCCCCCCCCCCCCC)CO1 (stereo not shown) [A, 2,5-dipalmitoyloxymethyl-[1,4]dioxane-2,5-diol] | – | – | – | – | – | Light yellow | Yellow | Brown | – | – | Brown | able to undergo Maillard browning reactions | 95.2 °C
